Reference: publication PMC6158578, “Optimization and Lead Selection of Benzothiazole Amide Analogs Toward a Novel Antimycobacterial Agent” (Frontiers in Microbiology, 2018)
In brackets after ≈: the same amount, converted by molar mass. Where two headings read alike, the source gives them in different places.

How the values were obtained:
[1] = system: M. tuberculosis H37Rv mc^2 6206; assay: microbe, parasite or virus in culture; assay type: cell-based; details: Mycobacterium tuberculosis, 168 h
M. intracellulare 1956 = assay: MIC, Middlebrook medium (7H9 + OADC, 7 days); assay type: cell-based; details: Mycobacterium intracellulare, 168 h; M. intracellulare 1956; read-out: MIC
Solubility in corn oil = details: oil or lipid
[2] = Mouse oral PK and tolerability; assay type: in vivo, female CD-1 mice; details: oral 100 mg/kg
[3] = system: Anaerobes (n > 20 strains); assay: organism not typed; assay type: cell-based
[4] = system: M. fortuitum (n = 11) clinical isolates; assay: MIC against rapid-growing NTM clinical isolates; assay type: cell-based; details: M. fortuitum (n = 11)
physchem = assay type: physicochemical; details: pH 7.4, aqueous buffer, thermodynamic from solid
Protocol: (§1) ADMET assays were performed through NIAID Preclinical Services and Eurofins. Potential for cytotoxicity was monitored in HepG2 cells after 72 h growth in the presence of test compounds, either prepared as 10-point 3-fold serial dilutions or at a fixed 10 μM concentration. Cell viability was measured using the CellTiter-Glo® Luminescent Cell Viability Assay (Promega) or via fluorescent image analysis. Cytotoxicity was expressed as IC50 or as percent reduction of viable cells relative to a reference compound. Metabolic stability of compounds was evaluated via incubation with human liver microsomes at 37°C and quantitative analysis of parent compound by LC-MS/MS in samples removed at 0, 5, 15, 30, and 45 min (Obach, [1999]). For cytochrome P450 (CYP) inhibition assays, compounds were prepared as a 7-point dilution series and incubated with human liver microsomes in buffer containing 2 mM NADPH and probe substrate. […] Thermodynamic solubility of compounds in aqueous media was determined by incubation in 50 mM potassium phosphate buffer (pH 7.4) for 24 h, followed by HPLC-UV detection of compound in the filtrate (Analiza, Cleveland, OH, United States).

CYP2B6 = target: T1, CYP2B6 (Homo sapiens, UniProt P20813); assay: CYP inhibition in human liver microsomes; assay type: in vitro ADME
T1 construct: incubated with human liver microsomes in buffer containing 2 mM NADPH and probe substrate; from tissue; host or cells: human liver microsomes
T1 sequence (P20813 1-491): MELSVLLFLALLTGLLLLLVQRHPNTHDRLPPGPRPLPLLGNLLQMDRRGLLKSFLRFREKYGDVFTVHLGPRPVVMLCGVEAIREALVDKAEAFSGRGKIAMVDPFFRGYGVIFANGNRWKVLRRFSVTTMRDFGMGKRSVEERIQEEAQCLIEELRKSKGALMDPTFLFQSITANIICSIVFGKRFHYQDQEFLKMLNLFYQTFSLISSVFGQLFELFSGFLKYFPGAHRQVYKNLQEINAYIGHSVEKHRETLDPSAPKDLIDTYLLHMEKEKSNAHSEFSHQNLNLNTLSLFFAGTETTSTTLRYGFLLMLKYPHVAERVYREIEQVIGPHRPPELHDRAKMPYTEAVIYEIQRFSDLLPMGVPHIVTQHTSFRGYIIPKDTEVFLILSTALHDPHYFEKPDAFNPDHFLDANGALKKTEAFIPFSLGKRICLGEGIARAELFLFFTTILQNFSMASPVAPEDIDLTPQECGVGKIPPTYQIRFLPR
Protocol: as §1

CYP3A = assay: CYP inhibition in human liver microsomes; assay type: in vitro ADME
Protocol: as §1

Mtb = assay: microbe, parasite or virus in culture; assay type: cell-based, M. tuberculosis; details: Mycobacterium tuberculosis
Mtb H37Rv = assay type: cell-based, M. tuberculosis
[5] = system: M. peregrinum ATCC 700686; assay: MIC, broth microdilution with resazurin (MHB, 3 days); assay type: cell-based; details: Mycolicibacterium peregrinum, ATCC700686; M. peregrinum ATCC 700686; read-out: MIC
[6] = 50% complement-inactivated human serum
in vitro = in vitro ADME; details: human, microsomes
Protocol: as §1

E. faecalis ATCC 29212 = assay: MIC, spectrum of activity; assay type: cell-based; details: Enterococcus faecalis, ATCC29212; E. faecalis ATCC 29212; read-out: MIC
M. chimaera 1502055 = assay: MIC, Middlebrook medium (7H9 + OADC, 7 days); assay type: cell-based; details: 168 h; M. chimaera 1502055; read-out: MIC
Other NTM (n = 12) = assay: MIC against rapid-growing NTM clinical isolates; assay type: cell-based; details: Other NTM (n = 12)
HepG2 cytotoxicity, 72 h = assay type: cell-based; details: human, HepG2 cells, HepG2, 72 h, read-out: HepG2 cytotox., IC50
Protocol: as §1

M. chelonae 93 = assay: MIC, broth microdilution with resazurin (MHB, 3 days); assay type: cell-based; details: Mycobacteroides chelonae; M. chelonae 93; read-out: MIC
M. fortuitum 41 = assay: as above; assay type: cell-based; details: Mycolicibacterium fortuitum; M. fortuitum 41; read-out: MIC
S. pyogenes ATCC 19615 = assay: MIC, spectrum of activity; assay type: cell-based; details: Streptococcus pyogenes, ATCC19615; S. pyogenes ATCC 19615; read-out: MIC
[7] = system: M. abscessus (n = 20) clinical isolates; assay: MIC against rapid-growing NTM clinical isolates; assay type: cell-based; details: M. abscessus (n = 20)
M. abscessus ATCC 19977 = assay: MIC, broth microdilution with resazurin (MHB, 3 days); assay type: cell-based; details: Mycobacteroides abscessus, ATCC19977; M. abscessus ATCC 19977; read-out: MIC
[8] = system: M. abscessus massiliense 119; assay: as above; assay type: cell-based; details: Mycobacteroides abscessus; M. abscessus massiliense 119; read-out: MIC
[9] = system: E. coli ATCC 25922 + PMBN (permeabilized); assay: MIC, spectrum of activity; assay type: cell-based; details: Escherichia coli, ATCC25922
[10] = system: E. coli tolC CGSC 5633 (efflux mutant strain); assay: microbe, parasite or virus in culture; assay type: cell-based; details: Escherichia coli

CC12CC3CC(C)(C1)CC(C(=O)Nc1nc4ccc(OC(F)(F)F)cc4s1)(C3)C2 [CRS400226]
MIC [1]: 0.5 µg/mL (≈ 1.18 µM) | MIC (M. intracellulare 1956): 1 µg/mL | solubility (Solubility in corn oil): ≤ 250 mg/mL | concentration at 1 h ([2]; mouse, plasma, female CD-1 mice, 1 h, read-out: plasma level): 2300 ng/mL | concentration at 8 h ([2]; mouse, plasma, female CD-1 mice, 8 h, read-out: plasma level): 2000 ng/mL | tolerability of oral dosing ([2]; mice): highly tolerated | MIC [3]: > 16 µg/mL | MIC range [4]: 0.12 to 0.5 µg/mL | MIC90 ([4]; Mycolicibacterium fortuitum, read-out: MIC90): 0.5 µg/mL (≈ 1.18 µM) | solubility at 24 h (physchem): < 3 µM | inhibition at 10 µM (CYP2B6): < 50% | inhibition at 10 µM (CYP3A): < 50% | MBC (Mtb): 10.6 µg/mL (≈ 25 µM) | reduction in Mtb in time-kill assay (Mtb H37Rv): 3 Log10 CFU | time-kill kinetics, result in words (Mtb H37Rv): bactericidal activity | MIC [5]: ≤ 0.06 µg/mL | Protein (serum) binding [6]: >95% | microsomal CLint (in vitro): 124 µL/min/mg | MIC (E. faecalis ATCC 29212): > 64 µg/mL | MIC (M. chimaera 1502055): 1 µg/mL | MIC range (Other NTM (n = 12)): 0.12 to 1 µg/mL | MIC90 (Other NTM (n = 12); read-out: MIC90): 0.5 µg/mL (≈ 1.18 µM) | IC50 at 72 h (HepG2 cytotoxicity, 72 h): 69 µM | IC50 at 72 h (HepG2 cytotoxicity, 72 h; value in brackets): 29 µg/mL | MIC (M. chelonae 93): 0.5 µg/mL (≈ 1.18 µM) | MIC (M. fortuitum 41): 0.12 µg/mL (≈ 0.283 µM) | MIC (S. pyogenes ATCC 19615): > 64 µg/mL | MIC range [7]: 0.25 to 2 µg/mL | MIC90 ([7]; Mycobacteroides abscessus, read-out: MIC90): 0.5 µg/mL (≈ 1.18 µM) | MIC (M. abscessus ATCC 19977): 0.25 µg/mL (≈ 0.589 µM) | MIC [8]: 0.25 µg/mL (≈ 0.589 µM) | MIC [9]: > 64 µg/mL | MIC [10]: > 64 µg/mL
